Measurements reported in ChEMBL document CHEMBL1201862, “PubChem BioAssay data set” (2004).
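Each compound was tested at five concentrations against cells in 96-well plates for 48 hours. GI50 is the concentration that inhibits growth by half.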 The source made the active and inactive calls. No stated cut-off is given here; in the data, active = GI50 up to about 1.1 µM and inactive = higher.

Experiments:
Test in all cases: NCI tumour cell line growth inhibition, 48 h
[1] = system: 786-0
[2] = system: A498
[3] = system: A549
[4] = system: ACHN
[5] = system: CAKI-1
[6] = system: CCRF-CEM
[7] = system: COLO 205
[8] = system: DMS-114
[9] = system: DMS-273
[10] = system: EKVX
[11] = system: HCC 2998
[12] = system: HCT-116
[13] = system: HOP-18
[14] = system: HOP-62
[15] = system: HOP-92
[16] = system: HT-29
[17] = system: IGROV-1
[18] = system: K562
[19] = system: KM-20L2
[20] = system: KM12
[21] = system: LOX IMVI
[22] = system: LXFL 529
[23] = system: M14
[24] = system: M19-MEL
[25] = system: MOLT-4
[26] = system: Malme-3M
[27] = system: NCI-H226
[28] = system: NCI-H23
[29] = system: NCI-H460
[30] = system: NCI-H522
[31] = system: OVCAR-3
[32] = system: OVCAR-4
[33] = system: OVCAR-5
[34] = system: OVCAR-8
[35] = system: RPMI-8226
[36] = system: RXF 631
[37] = system: SF-295
[38] = system: SF-539
[39] = system: SK-MEL-28
[40] = system: SK-MEL-2
[41] = system: SK-MEL-5
[42] = system: SK-OV-3
[43] = system: SN12C
[44] = system: SNB-19
[45] = system: SNB-75
[46] = system: SNB-78
[47] = system: SR
[48] = system: SW-620
[49] = system: TK-10
[50] = system: U-251
[51] = system: UACC-257
[52] = system: UACC-62
[53] = system: UO-31
[54] = system: DLD-1
[55] = system: HCT-15
[56] = system: HL-60
[57] = system: RXF 393
[58] = system: SF-268
[59] = system: XF498

Q: What does the source list for `[N-]=[N+]=NC1C2CC3CC(C2)CC1C3` (stereo not drawn)?
A: GI50 [1]: > 100 µM (inactive); GI50 [2]: > 100 µM (inactive); GI50 [3]: > 100 µM (inactive); GI50 [4]: > 100 µM (inactive); GI50 [5]: > 100 µM (inactive); GI50 [6]: > 100 µM (inactive); GI50 [7]: > 100 µM (inactive); GI50 [8]: > 100 µM (inactive); GI50 [9]: > 100 µM (inactive); GI50 [10]: > 100 µM (inactive); GI50 [11]: > 100 µM (inactive); GI50 [12]: > 100 µM (inactive); GI50 [13]: > 100 µM (inactive); GI50 [14]: > 100 µM (inactive); GI50 [15]: > 100 µM (inactive); GI50 [16]: > 100 µM (inactive); GI50 [17]: > 100 µM (inactive); GI50 [18]: > 100 µM (inactive); GI50 [19]: > 100 µM (inactive); GI50 [20]: > 100 µM (inactive); GI50 [21]: > 100 µM (inactive); GI50 [22]: > 100 µM (inactive); GI50 [23]: > 100 µM (inactive); GI50 [24]: > 100 µM (inactive); GI50 [25]: > 100 µM (inactive); GI50 [26]: > 100 µM (inactive); GI50 [27]: > 100 µM (inactive); GI50 [28]: > 100 µM (inactive); GI50 [29]: > 100 µM (inactive); GI50 [30]: > 100 µM (inactive); GI50 [31]: > 100 µM (inactive); GI50 [32]: > 100 µM (inactive); GI50 [33]: > 100 µM (inactive); GI50 [34]: > 100 µM (inactive); GI50 [35]: > 100 µM (inactive); GI50 [36]: > 100 µM (inactive); GI50 [37]: > 100 µM (inactive); GI50 [38]: > 100 µM (inactive); GI50 [39]: > 100 µM (inactive); GI50 [40]: > 100 µM (inactive); GI50 [41]: > 100 µM (inactive); GI50 [42]: > 100 µM (inactive); GI50 [43]: > 100 µM (inactive); GI50 [44]: > 100 µM (inactive); GI50 [45]: > 100 µM (inactive); GI50 [46]: > 100 µM (inactive); GI50 [47]: > 100 µM (inactive); GI50 [48]: > 100 µM (inactive); GI50 [49]: > 100 µM (inactive); GI50 [50]: > 100 µM (inactive); GI50 [51]: > 100 µM (inactive); GI50 [52]: > 100 µM (inactive); GI50 [53]: > 100 µM (inactive)

Q: Which GI50 [2] does the source give for `Nc1ccn(C2OC(C(O)CO)C(O)C2O)c(=O)n1` (stereo not drawn) here?
A: > 100 µM (inactive)

Q: What about the GI50 [3] of the same molecule?
A: > 100 µM (inactive)

Q: What about the GI50 [4] of the same molecule?
A: > 100 µM (inactive)

Q: What about the GI50 [6] of the same molecule?
A: > 100 µM (inactive)

Q: And the GI50 [7]?
A: > 100 µM (inactive)

Q: And the GI50 [54]?
A: > 100 µM (inactive)

Q: And the GI50 [8]?
A: > 100 µM (inactive)

Q: And the GI50 [9]?
A: > 100 µM (inactive)

Q: What about the GI50 [10] of the same molecule?
A: > 100 µM (inactive)

Q: And the GI50 [12]?
A: > 100 µM (inactive)

Q: What about the GI50 [55] of the same molecule?
A: > 100 µM

Q: And the GI50 [56]?
A: > 100 µM (inactive)

Q: What about the GI50 [13] of the same molecule?
A: > 100 µM (inactive)

Q: And the GI50 [14]?
A: > 100 µM (inactive)

Q: And the GI50 [15]?
A: > 100 µM (inactive)

Q: What about the GI50 [18] of the same molecule?
A: > 100 µM (inactive)

Q: And the GI50 [19]?
A: > 100 µM (inactive)

Q: What about the GI50 [21] of the same molecule?
A: > 100 µM (inactive)

Q: What about the GI50 [22] of the same molecule?
A: > 100 µM (inactive)

Q: What about the GI50 [23] of the same molecule?
A: > 100 µM (inactive)

Q: And the GI50 [25]?
A: > 100 µM (inactive)

Q: And the GI50 [28]?
A: > 100 µM (inactive)

Q: And the GI50 [29]?
A: > 100 µM (inactive)

Q: And the GI50 [30]?
A: > 100 µM (inactive)

Q: And the GI50 [34]?
A: > 100 µM (inactive)

Q: What about the GI50 [35] of the same molecule?
A: > 100 µM (inactive)

Q: And the GI50 [57]?
A: > 100 µM (inactive)

Q: What about the GI50 [36] of the same molecule?
A: > 100 µM (inactive)

Q: And the GI50 [58]?
A: > 100 µM (inactive)

Q: What about the GI50 [37] of the same molecule?
A: > 100 µM (inactive)

Q: And the GI50 [38]?
A: > 100 µM (inactive)

Q: And the GI50 [39]?
A: > 100 µM (inactive)

Q: And the GI50 [41]?
A: > 100 µM (inactive)

Q: And the GI50 [42]?
A: > 100 µM (inactive)

Q: What about the GI50 [43] of the same molecule?
A: > 100 µM (inactive)

Q: And the GI50 [48]?
A: > 100 µM (inactive)

Q: And the GI50 [49]?
A: > 100 µM (inactive)

Q: And the GI50 [50]?
A: > 100 µM (inactive)

Q: What about the GI50 [53] of the same molecule?
A: 69.2 µM (inactive)

Q: And the GI50 [59]?
A: > 100 µM (inactive)

Q: What does the source list for `CN(C)C(=S)OC(Cn1cncn1)c1ccc(Cl)cc1Cl` (stereo not drawn)?
A: GI50 [1]: > 100 µM (inactive); GI50 [2]: > 100 µM (inactive); GI50 [3]: > 100 µM (inactive); GI50 [4]: > 100 µM (inactive); GI50 [5]: > 100 µM (inactive); GI50 [7]: > 100 µM (inactive); GI50 [54]: > 100 µM (inactive); GI50 [8]: > 100 µM (inactive); GI50 [9]: > 100 µM (inactive); GI50 [10]: > 100 µM (inactive); GI50 [11]: > 100 µM (inactive); GI50 [12]: > 100 µM (inactive); GI50 [55]: > 100 µM; GI50 [56]: > 100 µM (inactive); GI50 [13]: > 100 µM (inactive); GI50 [14]: > 100 µM (inactive); GI50 [15]: 72.8 µM (inactive); GI50 [16]: > 100 µM (inactive); GI50 [17]: > 100 µM (inactive); GI50 [18]: > 100 µM (inactive); GI50 [19]: > 100 µM (inactive); GI50 [20]: > 100 µM (inactive); GI50 [21]: > 100 µM (inactive); GI50 [22]: > 100 µM (inactive); GI50 [23]: > 100 µM (inactive); GI50 [24]: > 100 µM (inactive); GI50 [25]: > 100 µM (inactive); GI50 [26]: > 100 µM (inactive); GI50 [27]: > 100 µM (inactive); GI50 [28]: > 100 µM (inactive); GI50 [29]: > 100 µM (inactive); GI50 [30]: > 100 µM (inactive); GI50 [31]: > 100 µM (inactive); GI50 [32]: > 100 µM (inactive); GI50 [33]: > 100 µM (inactive); GI50 [34]: > 100 µM (inactive); GI50 [35]: > 100 µM (inactive); GI50 [57]: > 100 µM (inactive); GI50 [36]: > 100 µM (inactive); GI50 [58]: > 100 µM (inactive); GI50 [37]: > 100 µM (inactive); GI50 [38]: > 100 µM (inactive); GI50 [39]: > 100 µM (inactive); GI50 [40]: > 100 µM (inactive); GI50 [41]: 96.4 µM (inactive); GI50 [42]: > 100 µM (inactive); GI50 [43]: > 100 µM (inactive); GI50 [44]: > 100 µM (inactive); GI50 [45]: > 100 µM (inactive); GI50 [48]: > 100 µM (inactive); GI50 [49]: > 100 µM (inactive); GI50 [50]: > 100 µM (inactive); GI50 [51]: > 100 µM (inactive); GI50 [52]: > 100 µM (inactive); GI50 [53]: > 100 µM (inactive)
